In BindingDB's records for doi:10.1176/jnp.8.2.223 (1996):
Several values for one entry are separate records, joined by “and”; a condition that tells them apart may be missing. Identical values can stand only once. Counter-ions that a name gives are not always drawn.

molecular target: D(1A) dopamine receptor (Bos taurus, UniProt Q95136)
Sequence (Q95136 whole entry): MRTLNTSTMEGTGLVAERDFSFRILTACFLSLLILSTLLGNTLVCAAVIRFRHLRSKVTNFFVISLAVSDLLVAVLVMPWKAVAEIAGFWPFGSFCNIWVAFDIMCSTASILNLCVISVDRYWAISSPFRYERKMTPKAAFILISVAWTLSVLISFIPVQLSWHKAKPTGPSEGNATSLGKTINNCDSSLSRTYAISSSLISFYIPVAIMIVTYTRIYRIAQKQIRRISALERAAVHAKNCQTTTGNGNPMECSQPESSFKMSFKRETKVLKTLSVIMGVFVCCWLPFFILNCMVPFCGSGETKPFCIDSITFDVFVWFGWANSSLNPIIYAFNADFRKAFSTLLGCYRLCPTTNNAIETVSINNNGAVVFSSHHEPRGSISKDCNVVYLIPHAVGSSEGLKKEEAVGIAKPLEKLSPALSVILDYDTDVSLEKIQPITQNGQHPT

First: O=c1[nH]c2ccccc2n1C1CCN(CCCC(c2ccc(F)cc2)c2ccc(F)cc2)CC1 [1-(1-(4,4-bis(4-fluorophenyl)butyl)piperidin-4-yl)-1H-benzo[d]imidazol-2(3H)-one]
Second: O=C(CCCN1CCC(O)(c2ccc(Cl)cc2)CC1)c1ccc(F)cc1 [4-[4-(4-Chloro-phenyl)-4-hydroxy-piperidin-1-yl]-1-(4-fluoro-phenyl)-butan-1-one;propionate(HCl)]
The Ki of the first is 6.3-fold higher: 4100 nM for the first, 650 nM for the second.

molecular target: D(2) dopamine receptor (Bos taurus, UniProt P20288)
Sequence (P20288 whole entry): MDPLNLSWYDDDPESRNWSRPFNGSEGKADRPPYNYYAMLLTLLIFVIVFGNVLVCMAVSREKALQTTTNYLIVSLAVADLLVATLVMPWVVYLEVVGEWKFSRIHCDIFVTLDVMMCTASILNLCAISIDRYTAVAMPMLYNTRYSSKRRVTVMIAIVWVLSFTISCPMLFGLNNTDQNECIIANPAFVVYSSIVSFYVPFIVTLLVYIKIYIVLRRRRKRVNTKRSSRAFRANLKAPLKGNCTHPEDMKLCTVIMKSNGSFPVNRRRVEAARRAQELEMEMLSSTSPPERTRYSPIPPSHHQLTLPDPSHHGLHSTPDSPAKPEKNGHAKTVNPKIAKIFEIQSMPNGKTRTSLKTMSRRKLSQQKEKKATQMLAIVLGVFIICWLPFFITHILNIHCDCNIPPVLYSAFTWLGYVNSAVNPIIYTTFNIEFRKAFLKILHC

`O=c1[nH]c2ccccc2n1C1CCN(CCCC(c2ccc(F)cc2)c2ccc(F)cc2)CC1` [1-(1-(4,4-bis(4-fluorophenyl)butyl)piperidin-4-yl)-1H-benzo[d]imidazol-2(3H)-one] and `OCCN1CCN(CC/C=C2/c3ccccc3Sc3ccc(C(F)(F)F)cc32)CC1` [(cis) 2-{4-[3-(2-Trifluoromethyl-thioxanthen-9-ylidene)-propyl]-piperazin-1-yl}-ethanol(Flupentixol)] are within 1.5-fold of each other in Ki: 0.8 nM for the first, 1.1 nM for the second.

Work on `CN1CCN(CC/C=C2/c3ccccc3Sc3ccc(S(=O)(=O)N(C)C)cc32)CC1` [MLS000028463] yielded a Ki of 1.4 nM.

For `OCCN1CCN(CCCN2c3ccccc3Sc3ccc(C(F)(F)F)cc32)CC1` [2-[4-[3-[2-(trifluoromethyl)phenothiazin-10-yl]propyl]piperazin-1-yl]ethanol;hydrochloride], the Ki was 1.2 nM and 0.5 nM.
